Test results reported in patent US20080199846A1, “Poultry semen extender” (priority 2007, published 2008).

System: 24 h-stored turkey semen
Assay: Fertility evaluation: artificial insemination of hens with 24 h-stored turkey semen
Format: in vivo
Settings: for fertility of 24 h-stored semen versus control stored semen: 0.5, 2.5 or 10.0 mg/ml PC, wks 1-7 of egg production
Source text: Materials and Methods. Animals: LargeWhite breeder poults were purchased from a primary breeder and maintained under standard management conditions during the brooding and growing periods. At 28 wk of age, toms were photostimulated by increasing light exposure from a 12:12 to a 14:10 light:dark cycle to initiate semen production. Using the abdominal massage semen collection method (Burrows, W. H., and J. P. Quinn, Poult. Sci., 14: 251-254 (1935)), toms were pre-milked at 30 wk of age and then screened for semen quality at 31 and 32 wk of age prior to being designated to sperm storage treatment groups. At 32 wk of age, hens were photostimulated by increasing the daily light exposure from 6:18 to 14:10 h (light:dark) to initiate ovarian development and egg production. Hens were inseminated on Days 10 and 12 after photostimulation and then once per week for the next 12 wk of egg production. A total of 10 toms and 76 hens were used for each experimental replicate.
Semen Collection, Evaluation and Storage: Semen was collected weekly from toms and evaluated for volume, sperm concentration, sperm viability, and sperm mobility. Fresh semen was aliquoted for the control and 3 sperm treatments. Control semen was extended 1:1 with Beltsville Poultry Semen Extender (BPSE), while treated semen was extended 1:1 with BPSE supplemented with 0.5, 2.5 or 10.0 mg/ml phosphatidylcholine (PC). Extended semen was transferred to 48-well culture plates. Multiwell plates were placed in a room temperature water bath on an orbital shaker (125 rpm) and slowly cooled to 4° C. with lids loosely fitted to ensure air availability during agitation. Semen was maintained under these conditions for 24 h.
Fertility Evaluation: A total of 304 hens (76/replicate) were artificially inseminated weekly with semen stored with 0.5 mg PC/ml (n=19), 2.5 mg PC/ml (n=19), 10 mg PC/ml (n=19) or without PC (control, n=19). An additional set of hens were inseminated weekly with stored semen containing 2.5 mg/ml PC and either 0.5 mM, 5.0 mM, or 50 mM ZnCl2; prior to insemination, semen stored in the presence of ZnCl2 was treated with EDTA to chelate Zn ions and restore sperm motility. The inseminant dose for all treatments was 150×10^6 sperm. This sperm number is less than that typically inseminated for commercial production; however, I desired a system sufficiently sensitive to detect even small changes in fertility due to sperm treatment. Eggs were candled after 7 d of incubation to determine true fertility and allowed to hatch to determine hatchability. Fertility trials were replicated 4 times using different flocks.
Statistical Analysis: Prior to analysis, data were checked to determine if a transformation was necessary. As expected, variables scored as percents (e.g., fertility) required transformation. I used the standard variance stabilizing arcsine transformation, y=arcsine (√(x)), where x represents the data, recorded as a proportion, and y is the scale used in the analysis. This transformation stabilized the variances sufficiently to proceed with an analysis in a mixed models framework. Software for conducting mixed models analyses in non-Gaussian frameworks, e.g., logistic regression, is not yet readily available. The mixed models I developed, estimated using Proc Mixed (SAS Institute, 1999), considered sperm treatment and week of study as fixed factors, with hen as a random factor. In addition, since data were taken from the same individuals repeatedly, thus inducing correlation, I allowed for within-individual time series correlation using an autoregressive structure. To ensure that my sample size and design had sufficient power to accurately determine the effects of the sperm treatments, I did a small simulation study prior to finalizing the design. Power was reassessed once the study was complete, and I report those results below. I used the default REML estimation method in Proc Mixed. […]

Q: `[Cl-].[Cl-].[Zn+2]` [ZnCl2] was tested. Which “fertility rates versus 5.0 or 50 mM ZnCl2” value (0.5 mM ZnCl2, semen with 2.5 mg/ml PC, EDTA before insemination, p<0.05) did it give?
A: The value was “Higher”.

Q: And the “true fertility of 24 h-stored semen versus other ZnCl2 treatments or control semen” value (5.0 mM ZnCl2, wks 1-7, p<0.05)?
A: The value was “higher”.

Q: For phosphatidylcholine [PC], which “hens producing 100% fertile eggs versus any other stored semen treatment” value (2.5 mg/ml PC, first 7 wks of egg production, p<0.05) is on record?
A: The value was “more”.

Q: And the “percentage of hens laying all (100%) fertile eggs versus any other sperm treatment group” value (2.5 mg/ml PC, wks 2-7, p<0.05)?
A: Its value is “more”.

Q: And the “predictability of fertility versus the other concentrations” value (10 mg/ml)?
A: Its value is “less predictable fertility”.

Q: And the “fertility rates during egg production” value (10 mg/ml PC treatment)?
A: The value was “varied widely”.

Q: What about the “fertility rates versus 0.5 or 2.5 mg/ml PC treatments” value (10 mg/ml PC, at 1, 2 8, 10, 11, and 12 wks, p<0.05) of the same molecule?
A: The value was “Lower”.

Q: What about the “percentage of hens laying all unfertilized eggs versus any other sperm treatment group” value (10.0 mg/ml PC, wks 4 and 10, p<0.05) of the same molecule?
A: The value was “more”.

Q: What about the “fertility of 24 h-stored semen versus control stored semen” value (p<0.05) of the same molecule?
A: The value was “improved”.

Q: What about the “fertility of 24 h-stored semen versus control stored semen” value (p<0.05, listed as phosphatidycholine) of the same molecule?
A: Its value is “higher”.

Q: And the “fertility of stored turkey semen” value (0.5 or 2.5 mg/ml, first 12 wks of egg production)?
A: The value was “improved”.

Q: And the “fertility rates, 0.5 versus 2.5 mg/ml PC treatments” value (throughout egg production except wks 7 and 12, p>0.05)?
A: The value was “similar”.

Q: What about the “fertility of 2.5 mg/ml PC treatment versus 0.5 mg/ml” value (wks 7 and 12, p<0.05) of the same molecule?
A: The value was “higher”.
